Here are results for 17 compounds from ChEMBL document CHEMBL3286286, “2-(2-Arylphenyl)benzoxazole As a Novel Anti-Inflammatory Scaffold: Synthesis and Biological Evaluation” (ACS Med Chem Lett, 2014).

The structures appear in SMILES notation.

Test [1] is described as follows: Selectivity for human recombinant COX2 to ovine COX1.
Test [2] deals with T1, Prostaglandin G/H synthase 2 (Homo sapiens) (UniProt P35354).
T1 sequence (whole entry): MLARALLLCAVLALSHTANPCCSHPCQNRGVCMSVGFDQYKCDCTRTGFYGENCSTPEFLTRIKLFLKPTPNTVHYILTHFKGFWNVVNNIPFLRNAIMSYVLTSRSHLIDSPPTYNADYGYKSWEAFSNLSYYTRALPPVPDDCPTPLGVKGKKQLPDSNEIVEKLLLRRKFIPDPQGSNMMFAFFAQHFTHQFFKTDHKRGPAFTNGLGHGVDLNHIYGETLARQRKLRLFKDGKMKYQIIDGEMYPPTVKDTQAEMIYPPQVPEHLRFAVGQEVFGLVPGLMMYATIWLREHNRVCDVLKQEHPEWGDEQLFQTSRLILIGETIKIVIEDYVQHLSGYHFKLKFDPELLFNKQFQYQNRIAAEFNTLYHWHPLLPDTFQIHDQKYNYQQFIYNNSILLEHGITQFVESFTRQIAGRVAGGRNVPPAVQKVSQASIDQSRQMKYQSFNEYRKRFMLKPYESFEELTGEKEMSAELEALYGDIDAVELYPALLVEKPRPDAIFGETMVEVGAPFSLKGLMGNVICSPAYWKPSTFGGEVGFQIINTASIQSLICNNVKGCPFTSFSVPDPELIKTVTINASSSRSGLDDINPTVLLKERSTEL
As to conditions: at 10 µM.
Description: Inhibition of human recombinant COX2 using arachidonic acid as substrate at 10 uM

Test [3] has as its target T2, Prostaglandin G/H synthase 1 (Ovis aries) (UniProt P05979).
T2 sequence (whole entry): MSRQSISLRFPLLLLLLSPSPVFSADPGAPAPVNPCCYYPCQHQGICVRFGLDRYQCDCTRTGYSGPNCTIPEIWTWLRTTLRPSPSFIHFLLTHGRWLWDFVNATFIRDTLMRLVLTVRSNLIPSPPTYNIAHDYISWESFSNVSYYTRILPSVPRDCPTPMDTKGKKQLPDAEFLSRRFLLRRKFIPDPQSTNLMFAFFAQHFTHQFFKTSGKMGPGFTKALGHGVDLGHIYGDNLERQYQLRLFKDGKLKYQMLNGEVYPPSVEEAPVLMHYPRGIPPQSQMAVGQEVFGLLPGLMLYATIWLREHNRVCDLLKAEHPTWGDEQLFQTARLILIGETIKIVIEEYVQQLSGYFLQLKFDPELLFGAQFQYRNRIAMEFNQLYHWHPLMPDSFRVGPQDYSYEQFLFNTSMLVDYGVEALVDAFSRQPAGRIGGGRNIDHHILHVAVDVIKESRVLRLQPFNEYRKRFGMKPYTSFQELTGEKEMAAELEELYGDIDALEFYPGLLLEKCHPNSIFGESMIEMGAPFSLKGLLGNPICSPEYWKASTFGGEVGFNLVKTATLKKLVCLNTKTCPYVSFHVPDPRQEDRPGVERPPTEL
The experiment in a line: Inhibition of ovine COX1 using arachidonic acid as substrate at 10 uM.

Test [4] relates to Rattus norvegicus. Kind of test: Antiinflammatory activity in Wistar albino rat assessed as reduction in carrageenan-induced hind paw volume at 25 mg/kg, ip administered 10 mins after carrageenan-challenge measured up to 3 hrs. It counts as functional. To be noted: route intraperitoneal. A general note: In the carrageenan paw model, swelling and tenderness develop within hours.

For test [5], the target named is T3, Prostaglandin G/H synthase 1 (Ovis aries, UniProt P05979).
T3 sequence (P05979 whole entry): T2 sequence (whole entry)
Kind of test: Inhibition of ovine COX1 using arachidonic acid as substrate.

Test [6] concerns Rattus norvegicus. Kind of test: Antiinflammatory activity in Wistar albino rat assessed as reduction in carrageenan-induced hind paw volume at 12.5 mg/kg, ip administered 10 mins after carrageenan-challenge measured up to 3 hrs. As to conditions: route intraperitoneal. It counts as functional.
The target of test [7] is T4, Prostaglandin G/H synthase 2 (Homo sapiens, UniProt P35354).
T4 sequence (P35354 whole entry): T1 sequence (whole entry)
Kind of test: Inhibition of human recombinant COX2 using arachidonic acid as substrate.

A short description of test [8]: Selectivity index, ratio of IC50 for ovine COX1 to IC50 for human recombinant COX2.

In the case of `CSc1ccc(-c2ccccc2-c2nc3ccccc3o2)cc1`, the Selectivity ratio in test [1] is 10.7. Besides, the figures for the inhibition in test [2] and in test [3] were 43.5% and 4.07%, respectively.

Consider `COc1ccc(-c2ccccc2-c2nc3ccccc3o2)cc1`, for which the Selectivity ratio in test [1] was 0.78. Besides, the inhibition (in general, the relative decrease from the control value, in per cent) in test [2] is 14.8%; in test [3], 19.1%.

Regarding `COc1cccc(-c2ccccc2-c2nc3ccccc3o2)c1OC`, the Selectivity ratio in test [1] was found to be 0.8. Also, the inhibition was 59.9% in test [2] and 74.9% in test [3].

For `COc1ccc(-c2ccccc2-c2nc3ccccc3o2)cc1Cl`, the Selectivity ratio in test [1] came out at 12.6. Moreover, in the test with Rattus norvegicus [4], the inhibition in vivo (commonly the relative decrease from the control value, in per cent) at 25 mg/kg is 64.4%. The IC50 (usually the concentration at which inhibition is half-maximal) in test [5] was 46.8 µM; in test [7] it was 0.67 µM. For the same compound, the inhibition in vivo at 12.5 mg/kg in the test with Rattus norvegicus [6] amounted to 53.9%. Besides, the inhibition was found to be 81.4% in test [2] and 6.45% in test [3]. Moreover, the Ratio IC50 in test [8] amounted to 69.8.

In the case of `N#Cc1ccc(-c2ccccc2-c2nc3ccccc3o2)cc1`, in test [1], the Selectivity ratio came out at 4.83. Moreover, the results for the inhibition in test [2] and in test [3] were 40.9% and 8.46%, respectively.

`Fc1ccc(-c2ccccc2-c2nc3ccccc3o2)cc1`: in test [1], the Selectivity ratio worked out at 1.57. Further, the figures for the inhibition in test [2] and in test [3] were 8.46% and 1.65%, respectively.

`CC(C)Oc1ccc(-c2ccccc2-c2nc3ccccc3o2)cc1Cl`: the Selectivity ratio in test [1] came out at 15.5. Moreover, the inhibition in test [2] was 33.9%; in test [3] it was 2.19%.

Consider `FC(F)(F)c1ccc(-c2ccccc2-c2nc3ccccc3o2)cc1`, for which the Selectivity ratio in test [1] amounted to 3.38. Also, the values for the inhibition in test [2] and in test [3] were 11.7% and 3.45%, respectively.

With `COc1ccc(-c2ccccc2-c2nc3ccccc3o2)cc1OC`, the Selectivity ratio in test [1] was 1.49. The inhibition in test [2] worked out at 86.6%; in test [3] it was 58.2%.

As for `Cc1ccc(-c2cc(C(F)(F)F)nn2-c2ccc(S(N)(=O)=O)cc2)cc1` [CELECOXIB], in the test with Rattus norvegicus [4], the inhibition in vivo at 25 mg/kg stood at 74.6%. For the same compound, in the test with Rattus norvegicus [6], the inhibition in vivo at 12.5 mg/kg stood at 60.6%.

With `O=C(O)Cc1ccccc1Nc1c(Cl)cccc1Cl` [DICLOFENAC], the inhibition in vivo at 25 mg/kg in the test on Rattus norvegicus [4] came to 84.6%. Further, the inhibition in vivo at 12.5 mg/kg in the test with Rattus norvegicus [6] is 67.3%.

Regarding `O=Cc1ccc(-c2ccccc2-c2nc3ccccc3o2)cc1`, the Selectivity ratio in test [1] stood at 8.81. Besides, the values for the inhibition in test [2] and in test [3] were 58% and 6.58%, respectively.

On to `COc1ccc(-c2ccccc2-c2nc3ccccc3o2)cc1OC1CCCC1`, for which the Selectivity ratio in test [1] was 0.87. Further, the inhibition in test [2] came to 14.8%; in test [3], 17.1%.

`Clc1cc(-c2ccccc2-c2nc3ccccc3o2)ccc1OCc1ccccc1`: the Selectivity ratio in test [1] worked out at 1.65. Further, the inhibition was 17% in test [2] and 10.3% in test [3].

As for `c1ccc(-c2ccccc2-c2nc3ccccc3o2)cc1`, the Selectivity ratio in test [1] came out at 0.44. The inhibition is 10.6% in test [2] and 24% in test [3].

Take `Oc1ccc(-c2ccccc2-c2nc3ccccc3o2)cc1Cl`: the Selectivity ratio in test [1] was 12.6. In addition, in the test with Rattus norvegicus [4], the inhibition in vivo at 25 mg/kg worked out at 82.7%. Moreover, the 50% inhibitory concentration (IC50) was 46.2 µM in test [5] and 0.41 µM in test [7]. Moreover, in the test with Rattus norvegicus [6], the inhibition in vivo at 12.5 mg/kg turned out to be 68.3%. Further, the inhibition worked out at 94.9% in test [2] and 7.56% in test [3]. In test [8], the Ratio IC50 is 113.

As for `CS(=O)(=O)c1ccc(-c2ccccc2-c2nc3ccccc3o2)cc1`, the Selectivity ratio in test [1] is 6.96. In the test on Rattus norvegicus [4], the inhibition in vivo at 25 mg/kg was 75%. Besides, the figures for the IC50 in test [5] and in test [7] were 45.1 µM and 1.34 µM, respectively. Further, the inhibition in vivo at 12.5 mg/kg in the test with Rattus norvegicus [6] was 62.5%. Further, the inhibition came to 75.1% in test [2] and 10.8% in test [3]. The Ratio IC50 in test [8] amounted to 33.6.
